Experimental findings from ChEMBL document CHEMBL3585245, “Synthesis and antiproliferative evaluation of 9-methoxy-6-(piperazin-1-yl)-11H-indeno[1,2-c]quinoline-11-one derivatives. Part 4” (Medchemcomm, 2014) are described below.

The test system of one assay is HeLa. As to the kind of experiment: Antiproliferative activity against human HeLa cells incubated for 72 hrs by MTT assay. In kind it is functional, cell-based.
For another assay, the system named is SAS. As to the kind of experiment: Antiproliferative activity against human SAS cells incubated for 72 hrs by MTT assay. In kind it is functional, cell-based.
Assay [1] in a line: Antiproliferative activity against human SKHep cells incubated for 72 hrs by MTT assay. In kind it is functional, cell-based.
The subject of a further assay is AGS. The assay can be described thus: Antiproliferative activity against human AGS cells incubated for 72 hrs by MTT assay. Type of assay: functional, cell-based.
Assay [2] in a line: Antiproliferative activity against human 786-O cells incubated for 72 hrs by MTT assay. As to conditions: 786-0, 72 h. Type of assay: functional, cell-based.
A further assay deals with MDA-MB-231. As to the kind of experiment: Antiproliferative activity against human MDA-MB-231 cells incubated for 72 hrs by MTT assay. Type of assay: functional, cell-based. Particulars: MDA-MB-231, 72 h.
Another assay deals with NCI-H1299. As to the kind of experiment: Antiproliferative activity against human H1299 cells incubated for 72 hrs by MTT assay. Particulars: NCI-H1299, 72 h. Type of assay: functional, cell-based.
The subject of the next assay is Detroit 551. As to the kind of experiment: Antiproliferative activity against human Detroit 551 cells incubated for 72 hrs by MTT assay. As to conditions: Detroit 551, 72 h. In kind it is functional, cell-based.
For another assay, the system named is Nucleic Acid. The assay can be described thus: Induction of DNA intercalation of negative supercoiled Escherichia coli pBR322 DNA at 10 uM incubated for 12 hrs by ethidium bromide staining based DNA mobility assay. In kind it is nucleic-acid assay.

The source made the active and inactive calls. No cut-off for these calls is given here. Where only a bound is given, the exact number is not on record here.

Turning to `CNCC(O)CN1CCN(c2nc3ccccc3c3c2-c2ccc(OC)cc2C3=O)CC1` (stereo not drawn), the IC50 turned out to be 4.64 µM in the assay on HeLa; 7.4 µM in the assay with SAS; 3.44 µM in assay [1]; 9.58 µM in the assay with AGS; 6.4 µM in assay [2]; 6.05 µM with MDA-MB-231. Besides, the values for the IC50 in the assay on NCI-H1299 and in the assay on Detroit 551 were 6.89 µM and 9.4 µM, respectively.

Regarding `COc1ccc2c(c1)C(=O)c1c-2c(N2CCN(CC(O)CN(C)C)CC2)nc2ccccc12` (stereo not drawn), the IC50 in the assay with HeLa was 2.47 µM; in the assay with SAS it was 6.9 µM; in assay [1] it was 2.22 µM; in the assay with AGS, 7.86 µM; in assay [2], 6.8 µM; with MDA-MB-231 it was 6.11 µM. The 50% inhibitory concentration (IC50) in the assay with NCI-H1299 was 6.84 µM; in the assay with Detroit 551, 2.58 µM.

Turning to `COc1ccc2c(c1)C(=O)c1c-2c(N2CCN(C(=O)CN3CCOCC3)CC2)nc2ccccc12`, the IC50 with HeLa is 18 µM; in the assay with SAS it was over 30 µM; in [1] it was 19.9 µM; with AGS, 21.4 µM; in [2], over 30 µM; in the assay on MDA-MB-231, over 30 µM. Further, in the assay with NCI-H1299, the IC50 is over 30 µM.

For `COc1ccc2c(c1)C(=O)c1c-2c(N2CCN(C(=O)CCNCCCN(C)C)CC2)nc2ccccc12`, the IC50 in the assay with HeLa was 5.43 µM; in the assay with SAS, 13.5 µM; in [1] it was 8.6 µM; in the assay with AGS, 2.8 µM; in assay [2], 5.9 µM; with MDA-MB-231 it was 5.7 µM. Moreover, the IC50 in the assay with NCI-H1299 worked out at 5.44 µM; in the assay with Detroit 551 it was 6.42 µM.

On to `COc1ccc2c(c1)C(=O)c1c-2c(N2CCN(C(=O)CNCCO)CC2)nc2ccccc12`, for which the IC50 with HeLa is 4.74 µM; in the assay on SAS, 11.3 µM; in assay [1], 6.64 µM; in the assay on AGS, 6.55 µM; in assay [2] it was 6.7 µM; with MDA-MB-231 it was 5.9 µM. Moreover, the IC50 in the assay on NCI-H1299 came out at 5.41 µM; with Detroit 551, 8.78 µM.

`COc1ccc2c(c1)C(=O)c1c-2c(N2CCNCC2)nc2ccccc12`: the IC50 was 15.2 µM in the assay on HeLa; over 30 µM in the assay with SAS; 25.3 µM in [1]; 10.1 µM with AGS; 12.5 µM in [2]; 23.8 µM in the assay with MDA-MB-231. In addition, the results for the IC50 in the assay on NCI-H1299 and in the assay with Detroit 551 were 17.1 µM and 5.71 µM, respectively.

For `COc1ccc2c(c1)C(=O)c1c-2c(N2CCN(C(=O)CCN(C)C)CC2)nc2ccccc12`, the IC50 is 11.7 µM in the assay with HeLa; 17 µM in the assay with SAS; 16.6 µM in assay [1]; 8.11 µM in the assay with AGS; 11.5 µM in assay [2]; 6.61 µM with MDA-MB-231. In addition, the values for the IC50 with NCI-H1299 and with Detroit 551 were 5.79 µM and 2.84 µM, respectively.

As for `COc1ccc2c(c1)C(=O)c1c-2c(N2CCN(C(=O)CN(C)C)CC2)nc2ccccc12`, the IC50 is 11.8 µM with HeLa; over 30 µM with SAS; 19.2 µM in assay [1]; 8.7 µM in the assay with AGS; 14.1 µM in assay [2]; 6.15 µM with MDA-MB-231. For the same compound, the IC50 in the assay on NCI-H1299 turned out to be 6.28 µM; in the assay with Detroit 551 it was 31.5 µM.

Take `COc1ccc2c(c1)/C(=N\OCC(O)CN(C)C)c1c-2c(N2CCN(CC(O)CN(C)C)CC2)nc2ccccc12` (stereo not drawn): the IC50 in the assay with HeLa was determined as 0.98 µM; in the assay on SAS, 9 µM; in assay [1], 2.46 µM; in the assay on AGS, 18.6 µM; in [2], 13.9 µM; in the assay on MDA-MB-231, 0.7 µM. In addition, the half-inhibitory concentration (IC50) was determined as 0.68 µM in the assay with NCI-H1299 and 2.05 µM in the assay with Detroit 551.

As to `CNCC(=O)N1CCN(c2nc3ccccc3c3c2-c2ccc(OC)cc2C3=O)CC1`, the IC50 in the assay on HeLa was determined as 2.04 µM; with SAS, 7.4 µM; in assay [1], 4.83 µM; in the assay on AGS, 7.15 µM; in [2], 6.2 µM; with MDA-MB-231 it was 5.92 µM. Besides, the IC50 in the assay on NCI-H1299 is 5.14 µM; with Detroit 551, 4.84 µM.

Turning to `COc1ccc2c(c1)C(=O)c1c-2c(N2CCN(C(=O)CNCCN(C)C)CC2)nc2ccccc12`, the IC50 amounted to 8.17 µM in the assay with HeLa; 19.5 µM in the assay on SAS; 16 µM in assay [1]; 14.1 µM in the assay with AGS; 9.37 µM in assay [2]; 6.15 µM in the assay on MDA-MB-231. Moreover, the IC50 worked out at 6.48 µM in the assay on NCI-H1299 and 4.59 µM in the assay with Detroit 551.

As to `COc1ccc2c(c1)C(=O)c1c-2c(N2CCN(C(=O)CCNCCO)CC2)nc2ccccc12`, the IC50 in the assay with HeLa turned out to be 3.13 µM; in the assay with SAS it was 9.1 µM; in assay [1] it was 4.51 µM; in the assay with AGS, 3.67 µM; in assay [2] it was 2.03 µM; in the assay on MDA-MB-231, 6.08 µM. Besides, the IC50 with NCI-H1299 worked out at 5.67 µM; with Detroit 551, 8.38 µM.

`COc1ccc2c(c1)C(=O)c1c-2c(N2CCN(C(=O)CCN3CCNCC3)CC2)nc2ccccc12`: the IC50 in the assay on HeLa worked out at 4.71 µM; in the assay on SAS it was 7.7 µM; in [1] it was 4.93 µM; in the assay on AGS it was 5.46 µM; in [2], 1.5 µM; in the assay on MDA-MB-231, 6.26 µM. The results for the IC50 with NCI-H1299 and in the assay with Detroit 551 were 5.87 µM and 3.35 µM, respectively.

For the compound `COc1ccc2c(c1)C(=O)c1c-2c(N2CCN(C(=O)CNCCCN(C)C)CC2)nc2ccccc12`, the IC50 is 10.8 µM with HeLa; over 30 µM in the assay with SAS; 13.1 µM in [1]; 5.62 µM in the assay on AGS; 9.97 µM in assay [2]; 6 µM in the assay with MDA-MB-231. Also, the IC50 with NCI-H1299 is 5.99 µM; with Detroit 551, 8.89 µM.

In the case of `COc1ccc2c(c1)C(=O)c1c-2c(N2CCN(C(=O)CCNCCN(C)C)CC2)nc2ccccc12`, the IC50 in the assay on HeLa stood at 4.78 µM; in the assay with SAS, 8.8 µM; in [1], 5.08 µM; with AGS it was 4.94 µM; in assay [2] it was 7.03 µM; in the assay with MDA-MB-231 it was 7.44 µM. The IC50 with NCI-H1299 worked out at 5.65 µM; with Detroit 551 it was 2.53 µM.

For `CNCCC(=O)N1CCN(c2nc3ccccc3c3c2-c2ccc(OC)cc2C3=O)CC1`, the IC50 came to 1.9 µM in the assay with HeLa; 6.9 µM with SAS; 9.1 µM in assay [1]; 8.11 µM with AGS; 6 µM in assay [2]; 5.89 µM in the assay on MDA-MB-231. For the same compound, the results for the IC50 with NCI-H1299 and in the assay on Detroit 551 were 5.46 µM and 2.92 µM, respectively.

As to `COc1ccc2c(c1)/C(=N\O)c1c-2c(N2CCNCC2)nc2ccccc12`, the IC50 with HeLa was 2.35 µM; in the assay with SAS it was 6.1 µM; in [1], 3.75 µM; with AGS, 1.74 µM; in assay [2] it was 1.2 µM; with MDA-MB-231 it was 5.87 µM. In addition, in the assay with NCI-H1299, the IC50 was found to be 5.72 µM.

For the compound `COc1ccc2c(c1)C(=O)c1c-2c(N2CCN(C(=O)CCN3CCOCC3)CC2)nc2ccccc12`, the IC50 in the assay on HeLa was 14.3 µM; in the assay with SAS it was over 30 µM; in assay [1], 15.1 µM; in the assay on AGS it was 12 µM; in assay [2], over 30 µM; with MDA-MB-231, 21.9 µM. The compound also yielded an IC50 with NCI-H1299 of 18.7 µM.

Take `COc1ccc2c(c1)/C(=N\OCCN1CCCC1)c1c-2c(O)nc2ccccc12`: in the assay on Nucleic Acid, the result was Active.

On to `COc1ccc2c(c1)C(=O)c1c-2c(N2CCN(C(=O)CN3CCNCC3)CC2)nc2ccccc12`, for which the half-inhibitory concentration (IC50) was over 30 µM in the assay with HeLa; 7.4 µM in the assay on SAS; 2.22 µM in assay [1]; 3.37 µM in the assay with AGS; 4 µM in [2]; 5.45 µM with MDA-MB-231. Further, the results for the IC50 in the assay with NCI-H1299 and in the assay with Detroit 551 were 5.32 µM and 2.55 µM, respectively.

For `CC[C@@]1(O)C(=O)OCc2c1cc1n(c2=O)Cc2cc3ccccc3nc2-1` [CAMPTOTHECIN], the IC50 came out at 0.18 µM in the assay on HeLa; 6 µM with SAS; 0.22 µM in assay [1]; 23.8 µM in the assay on AGS; 0.015 µM in assay [2]; 2.11 µM in the assay on MDA-MB-231. In addition, the figures for the IC50 in the assay on NCI-H1299 and with Detroit 551 were 3.14 µM and 0.99 µM, respectively.
